Target: Induced myeloid leukemia cell differentiation protein Mcl-1 (Homo sapiens, UniProt Q07820)
Assay: Inhibition of human recombinant MCL-1 (174 to 236) expressed in Escherichia coli BL21(DE3) using 6FAM-GELEVEFATQLRRFGDKLN as substrate after 15 mins by fluorescence polarization Assay

Chain of Induced myeloid leukemia cell differentiation protein Mcl-1 (Q07820 whole entry): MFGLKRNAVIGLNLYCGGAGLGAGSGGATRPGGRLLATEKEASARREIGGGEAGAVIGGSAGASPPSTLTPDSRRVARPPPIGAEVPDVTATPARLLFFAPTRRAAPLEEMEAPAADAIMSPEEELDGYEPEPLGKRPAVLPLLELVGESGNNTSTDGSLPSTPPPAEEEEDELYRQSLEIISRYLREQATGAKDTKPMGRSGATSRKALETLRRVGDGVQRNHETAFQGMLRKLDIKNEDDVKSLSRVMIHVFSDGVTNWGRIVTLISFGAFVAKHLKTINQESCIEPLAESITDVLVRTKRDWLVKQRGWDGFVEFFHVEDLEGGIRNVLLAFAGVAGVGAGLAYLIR

IC50 [nM] | SMILES
80 | Cc1ccc(-c2ccc(C(=O)O)c(NS(=O)(=O)c3ccc(C(=O)N(C)C)cc3)c2)c2ccccc12
1100 | CCCCOc1ccc(F)c(-c2ccc(O)c(C(=O)O)c2)c1
190000 | Nc1cccc(-c2ccc(O)c(C(=O)O)c2)c1
780 | O=C(O)c1cc(-c2ccccc2OCc2ccccc2Cl)ccc1O
22000 | O=C(O)c1cc(-c2ccc3ncccc3c2)ccc1O
60 | Cc1ccc(-c2ccc(C(=O)O)c(NS(=O)(=O)c3ccc(OCCCN4CCOCC4)cc3)c2)c2ccccc12
150 | Cc1ccc(-c2ccc(C(=O)O)c(NS(=O)(=O)c3ccc(NC(=O)NCC(C)C)cc3)c2)c2ccccc12
45000 | CS(=O)(=O)Nc1ccccc1-c1ccc(O)c(C(=O)O)c1
1000 | O=C(O)c1ccc(-c2cccc3ccccc23)cc1NS(=O)(=O)c1ccccc1
22000 | Cc1ccccc1-c1ccc(O)c(C(=O)O)c1
500 | Cc1ccc(-c2ccc(C(=O)O)c(NS(=O)(=O)c3ccc(Oc4ccccc4)cc3)c2)c2ccccc12
73000 | Cc1ccc(-c2ccc(O)c(C(=O)O)c2)cc1
110 | Cc1ccc(-c2ccc(C(=O)O)c(NS(=O)(=O)c3ccc(N4CCOCC4)cc3)c2)c2ccccc12
200 | Cc1ccc(-c2ccc(C(=O)O)c(NS(=O)(=O)c3cccc(N4CCOCC4)c3)c2)c2ccccc12
31000 | O=C(O)c1cc(-c2cccc3ccccc23)ccc1O
570 | O=C(O)c1cc(-c2ccccc2COc2cccc3ccccc23)ccc1O
130000 | Oc1nc2c(ccc3ccccc32)o1
670 | O=C(O)c1cc(-c2ccccc2COc2cccc(C(F)(F)F)c2)ccc1O

IC50 [nM] | SMILES
300 | CCCCCc1ccc(S(=O)(=O)Nc2cc(-c3ccc(C)c4ccccc34)ccc2C(=O)O)cc1
3300 | CCCc1ccc(-c2ccc(O)c(C(=O)O)c2)cc1
4900 | Cc1ccc(-c2ccc(C(=O)O)c(NS(=O)(=O)c3ccccc3)c2)cc1
3400 | C=Cc1ccc(C(=O)OCC)c(NS(=O)(=O)c2ccccc2)c1
1800 | Cc1cccc(-c2ccc(C(=O)O)c(NS(=O)(=O)c3ccccc3)c2)c1
34000 | O=C(O)c1cc(-c2ccccc2)ccc1O
70000 | O=C1CC(c2cccc(C(F)(F)F)c2)=NN1
> 25000 | Cc1ccc(S(=O)(=O)Nc2ccccc2-c2ccc(O)c(C(=O)O)c2)cc1
400 | Cc1ccc(-c2ccc(C(=O)O)c(NS(=O)(=O)c3ccccc3)c2)c2ccccc12
1200 | CCC(C)c1ccc(S(=O)(=O)Nc2cc(-c3ccc(C)c4ccccc34)ccc2C(=O)O)cc1 (stereo not given)
280000 | CN(C)c1cccc2ccc(O)cc12
7200 | O=C(O)c1cc(-c2ccccc2OCc2ccccc2)ccc1O
30 | Cc1ccc(-c2ccc(C(=O)O)c(NS(=O)(=O)c3ccc(OCCn4cccn4)cc3)c2)c2ccccc12
2200 | O=C(O)c1cc(-c2ccc(OCc3ccccc3)cc2)ccc1O
> 25000 | CC(C)(C)OCc1ccccc1-c1ccc(O)c(C(=O)O)c1
6200 | Cc1ccc(-c2ccc(O)c(C(=O)O)c2)cc1C
37000 | O=C(O)c1ccc(-c2cccc3ncccc23)cc1NS(=O)(=O)c1ccccc1
